Three compounds from US3933794A, “2-(2-Alkynylamino)-3H-1,4-benzodiazepines” (priority 1973, dated 1976) can be followed below.

The structures appear in SMILES notation.

Common to all, as to format: in vivo
The subject of assay [1] is mice. Kind of assay: Chimney test. As to conditions: Mus musculus, ip, intraperitoneal injection, 50% of mice fail to back out of glass cylinder within 30 seconds, read-out: ED50 Ch (chimney test). An excerpt:
(§1) Sedative effects of the compounds of this invention are shown by the following tests in mice:
Chimney test: [Med. Exp. 4, 145 (1961)]: The test determines the ability of mice to back up and out of a vertical glass cylinder within 30 seconds. At the effective dosage, 50% of the mice failed doing it.

Assay [2] relates to mice. Kind of assay: Dish test. As to conditions: Mus musculus, ip, 0.05 h, intraperitoneal injection, 50% of mice remain in dish for more than 3 minutes, read-out: ED50 D (dish test). The method, then: as §1
Dish test: Mice in Petri dishes (10 cm. diameter, 5 cm. high, partially embedded in wood shavings), climb out in a very short time, when not treated. Mice remaining in the dish for more than 3 minutes indicates tranquilization. ED50 equals the dose of test compound at which 50% of the mice remain in the dish.

Assay [3] relates to mice. Kind of assay: Pedestal test. As to conditions: Mus musculus, ip, 1 min, intraperitoneal injection, mice stay on pedestal for more than 1 minute, read-out: ED50 P (pedestal test). The method, then:
as §1
Pedestal test: The untreated mouse leaves a standard pedestal in less than a minute to climb back to the floor of the standard mouse box. Tranquilized mice will stay on the pedestal for more than 1 minutes.

In assay [4] the test system is mice. Kind of assay: Nicotine antagonism test. To be noted: Mus musculus, ip, 0.5 h, intraperitoneal injection, nicotine salicylate 2 mg./kg. 30 minutes later, (3) = death, read-out: ED50 Ni (nicotine antagonism (3) test). The method, then: as §1
Nicotine antagonism test: Mice in a group of 6 are injected with the text compound. Thirty minutes later the mice including control (untreated) mice are injected with nicotine salicylate (2 mg./kg.). The control mice show over-stimulation, i.e., (1) running convulsions followed by (2) tonic extensor filts; followed by (3) death.

Assay [5] concerns mice. Kind of assay: Antagonism to strychnine (as sulfate). To be noted: Mus musculus, ip, 4 h, read-out: ED50 Str (strychnine antagonism). The method, then:
as §1
Antagonism to strychnine (as sulfate): The test consists in orally administering into groups of 6 mice the test compound, and 30 minutes later 3 mg./kg. strychnine sulfate intraperitoneally. The survivors after 4 hours reflect the activity of the compound as a muscle relaxant and antispasmodic. A dosage of 3 mg./kg. of strychnine sulfate is routinely fatal to all the control mice.

Usually ED50 stands for the dose that gives a 50% effect, or the effect in half of the subjects. For the compound `Cc1cnc2n1-c1ccc(Cl)cc1C(c1ccccc1)=NC2` [8-chloro-1-methyl-6-phenyl-4H-imidazo[1,2-a]-[1,4]benzodiazepine], the ED50 in assay [1] was 25 mg/kg; in assay [2], 5 mg/kg; in assay [3], 28 mg/kg; in assay [4] it was 1.8 mg/kg; in assay [5] it was 79 mg/kg.
On to `O=Cc1cnc2n1-c1ccc(Cl)cc1C(c1ccccc1)=NC2` [8-chloro-6-phenyl-4H-imidazo[1,2-a][1,4]benzodiazepine-1-carboxaldehyde], for which the ED50 in assay [1] was 4 mg/kg; in assay [2] it was 0.8 mg/kg; in assay [3], 2.8 mg/kg; in assay [4] it was 0.36 mg/kg; in assay [5] it was 11 mg/kg.
On the same counts, the results for `Cc1cnc2n1-c1ccc(Cl)cc1C(c1ccccc1Cl)=NC2` [8-chloro-6-(2-chlorophenyl)-1-methyl-4H-imidazo[1,2-a][1,4]benzodiazepine] are 0.5 mg/kg, 0.23 mg/kg, 0.4 mg/kg, 0.13 mg/kg and 1.8 mg/kg.
